The numbers were not newly measured in US12251376B2, “Combinations with thiazolidinediones for use in the prevention or treatment of abnormal bone growth” (SERVIZO GALEGO DE SAÚDE (SERGAS), priority 2019, dated 2025), which cites them from elsewhere.

Structures are written as SMILES. Where “and” joins values, the source holds several entries; their conditions need not be identical. Equal values may be shown once.

One series has as its system abnormal bone growth. As to conditions: for preventing recurrence of heterotopic ossification after total hip replacement: state of the art.
Assay in series [1]: not given
This is another data set of the same source.

Assay in series [2]: not given
This is another data set of the same source.

Consider `CC(=O)Oc1ccccc1C(=O)O` [aspirin], for which the “preventing recurrence of heterotopic ossification after total hip replacement” value (from here on “preventing recurrence”) in the series on abnormal bone growth is “some effect”.
Take `CC(C)Cc1ccc(C(C)C(=O)O)cc1` (centres unmarked) [ibuprofen]: the “preventing recurrence” value in the series on abnormal bone growth is on record as “some effect”.
With `COc1ccc2c(c1)c(CC(=O)O)c(C)n2C(=O)c1ccc(Cl)cc1` [indomethacin], under “oral”, the Bioavailability entry was “total”. Moreover, in the series with abnormal bone growth (75 mg retard administration), the “reduction of abnormal bone growth (clinical data)” value is “significantly reduce”. Further, the “preventing recurrence” value with abnormal bone growth was “some effect”.
Consider `CCc1ccc(CCOc2ccc(CC3SC(=O)NC3=O)cc2)nc1` (centres unmarked) [pioglitazone], for which the Volume of distribution (in vivo) is 0.25 L/kg. For the same compound, for the setting “oral”, the Bioavailability is > 80% and ~83%; the “time of maximum plasma dose after oral administration” value was 2 h. Under “tested from 2 mg to 60 mg”, the “increase of plasma concentration with dose” value was “Linear increase”. For the same compound, the “doses shown safe in clinical trials” value in series [1] is “up to 180 mg/day”. Further, the solubility entry in series [2] was “highly insoluble”.
